ChEMBL document CHEMBL1137031, “Synthesis and antibacterial activity of C-6 carbamate ketolides, a novel series of orally active ketolide antibiotics” (2004)
Converted amounts (≈) assume the structure as drawn.

How the values were obtained:
Staphylococcus aureus [1] = assay: Minimum inhibitory concentration against Staphylococcus aureus OC4172 in presence of mouse serum; format: functional
Staphylococcus aureus [2] = assay: Minimum inhibitory concentration against Staphylococcus aureus OC4172; format: functional
Mus musculus [3] = assay: Percent survival of Staphylococcus aureus infected murine was tested after peroral injection of 20 mg/kg dose; format: functional; settings: route oral
Mus musculus [4] = assay: Percent survival of Staphylococcus aureus infected murine was tested after subcutaneous injection of 10 mg/kg dose; format: functional; settings: sc
Haemophilus influenzae = assay: Minimum inhibitory concentration against Haemophilus influenzae OC4482
Streptococcus pneumoniae [5] = assay: Minimum inhibitory concentration against Streptococcus pneumoniae OC4051
Streptococcus pneumoniae [6] = assay: Minimum inhibitory concentration against Streptococcus pneumoniae OC4421
Streptococcus pneumoniae [7] = assay: Minimum inhibitory concentration against Streptococcus pneumoniae OC9132
[8] = tested on: Staphylococcus haemolyticus; assay: Minimum inhibitory concentration against Staphylococcus haemolyticus OC3882
[9] = tested on: Staphylococcus haemolyticus; assay: Minimum inhibitory concentration against Staphylococcus haemolyticus OC4545
Mus musculus [10] = assay: Effective dose against Staphylococcus aureus infected murine was tested after subcutaneous injection; format: functional; settings: sc
Mus musculus [11] = organism: Mus musculus; assay: Effective dose against Staphylococcus aureus infected murine was tested after peroral injection; format: functional

SMILES	MIC (Staphylococcus aureus [1]) [µg/mL]	MIC (Staphylococcus aureus [2]) [µg/mL]	survival at 20 mg/kg (Mus musculus [3]) [%]	survival at 10 mg/kg (Mus musculus [4]) [%]	MIC (Haemophilus influenzae) [µg/mL]	MIC (Streptococcus pneumoniae [5]) [µg/mL]	MIC (Streptococcus pneumoniae [6]) [µg/mL]	MIC (Streptococcus pneumoniae [7]) [µg/mL]	MIC [8] [µg/mL]	MIC [9] [µg/mL]	ED50 (Mus musculus [10]) [mg/kg]	ED50 (Mus musculus [11]) [mg/kg]
CC[C@H]1OC(=O)C(C)C(=O)[C@H](C)[C@@H](O[C@@H]2O[C@H](C)C[C@H](N(C)C)[C@H]2O)[C@](C)(OC(=O)N/C=C/c2ccc(-c3ccccn3)cc2)C[C@@H](C)C(=O)[C@H](C)[C@H]2NC(=O)O[C@@]21C (stereo partly specified)	0.5	0.12 (≈ 0.146 µM)	20	80	4 (≈ 4.87 µM)	0.06 (≈ 0.0731 µM)	0.06 (≈ 0.0731 µM)	0.03 (≈ 0.0365 µM)	0.12 (≈ 0.146 µM)	> 16	–	–
CC[C@H]1OC(=O)C(C)C(=O)[C@H](C)[C@@H](O[C@@H]2O[C@H](C)C[C@H](N(C)C)[C@H]2O)[C@](C)(OC(=O)N/C=C/c2ccc(-c3ccccc3)cc2)C[C@@H](C)C(=O)[C@H](C)[C@H]2NC(=O)O[C@@]21C (stereo partly specified)	2	0.5 (≈ 0.61 µM)	–	–	8 (≈ 9.76 µM)	0.5 (≈ 0.61 µM)	0.25 (≈ 0.305 µM)	0.06 (≈ 0.0732 µM)	1 (≈ 1.22 µM)	> 16	–	–
CC[C@H]1OC(=O)C(C)C(=O)[C@H](C)[C@@H](O[C@@H]2O[C@H](C)C[C@H](N(C)C)[C@H]2O)[C@](C)(OC(=O)N/C=C/c2ccc3ccccc3n2)C[C@@H](C)C(=O)[C@H](C)[C@H]2NC(=O)O[C@@]21C (stereo partly specified)	0.5	0.25 (≈ 0.314 µM)	25	75	4 (≈ 5.03 µM)	0.03 (≈ 0.0377 µM)	0.06 (≈ 0.0755 µM)	≤ 0.01	0.25 (≈ 0.314 µM)	> 16	–	–
CC[C@H]1OC(=O)C(C)C(=O)[C@H](C)[C@@H](O[C@@H]2O[C@H](C)C[C@H](N(C)C)[C@H]2O)[C@](C)(OC(N)=O)C[C@@H](C)C(=O)[C@H](C)[C@H]2NC(=O)O[C@@]21C (stereo partly specified)	1	4 (≈ 6.23 µM)	–	–	2 (≈ 3.12 µM)	> 16	2 (≈ 3.12 µM)	2 (≈ 3.12 µM)	> 16	> 16	–	–
CC[C@H]1OC(=O)C(C)C(=O)[C@H](C)[C@@H](O[C@@H]2O[C@H](C)C[C@H](N(C)C)[C@H]2O)[C@](C)(OC(=O)N/C=C/c2ccc3cccnc3c2)C[C@@H](C)C(=O)[C@H](C)[C@H]2NC(=O)O[C@@]21C (stereo partly specified)	0.5	0.12 (≈ 0.151 µM)	0	40	2 (≈ 2.52 µM)	0.03 (≈ 0.0377 µM)	0.03 (≈ 0.0377 µM)	≤ 0.01	0.25 (≈ 0.314 µM)	> 16	–	–
CC[C@H]1OC(=O)C(C)C(=O)[C@H](C)[C@@H](O[C@@H]2O[C@H](C)C[C@H](N(C)C)[C@H]2O)[C@](C)(OC(=O)NCCc2ccccc2)C[C@@H](C)C(=O)[C@H](C)[C@H]2NC(=O)O[C@@]21C (stereo partly specified)	2	1 (≈ 1.34 µM)	–	–	8 (≈ 10.7 µM)	2 (≈ 2.68 µM)	0.12 (≈ 0.161 µM)	0.25 (≈ 0.335 µM)	4 (≈ 5.36 µM)	> 16	–	–
CC[C@H]1OC(=O)C(C)C(=O)[C@H](C)[C@@H](O[C@@H]2O[C@H](C)C[C@H](N(C)C)[C@H]2O)[C@](C)(OC(=O)NCCCc2ccccc2)C[C@@H](C)C(=O)[C@H](C)[C@H]2NC(=O)O[C@@]21C (stereo partly specified)	8	2 (≈ 2.63 µM)	–	–	16 (≈ 21.1 µM)	1 (≈ 1.32 µM)	0.12 (≈ 0.158 µM)	0.06 (≈ 0.079 µM)	2 (≈ 2.63 µM)	> 16	–	–
CC[C@H]1OC(=O)C(C)C(=O)[C@H](C)[C@@H](O[C@@H]2O[C@H](C)C[C@H](N(C)C)[C@H]2O)[C@](C)(OC(=O)N/C=C/c2ccc(-n3ccnc3)cc2)C[C@@H](C)C(=O)[C@H](C)[C@H]2NC(=O)O[C@@]21C (stereo partly specified)	0.25	0.12 (≈ 0.148 µM)	0	60	4 (≈ 4.94 µM)	0.12 (≈ 0.148 µM)	0.25 (≈ 0.309 µM)	≤ 0.01	1 (≈ 1.23 µM)	> 16	–	–
CC[C@H]1OC(=O)C(C)C(=O)[C@H](C)[C@@H](O[C@@H]2O[C@H](C)C[C@H](N(C)C)[C@H]2O)[C@](C)(OC(=O)N/C=C/c2ccc(-c3cnccn3)cc2)C[C@@H](C)C(=O)[C@H](C)[C@H]2NC(=O)O[C@@]21C (stereo partly specified)	0.25	0.12 (≈ 0.146 µM)	62	100	4 (≈ 4.87 µM)	0.06 (≈ 0.073 µM)	0.12 (≈ 0.146 µM)	0.03 (≈ 0.0365 µM)	0.25 (≈ 0.304 µM)	> 16	4.8	17
CC[C@H]1OC(=O)C(C)C(=O)[C@H](C)[C@@H](O[C@@H]2O[C@H](C)C[C@H](N(C)C)[C@H]2O)[C@](C)(OC(=O)NCc2ccccc2)C[C@@H](C)C(=O)[C@H](C)[C@H]2NC(=O)O[C@@]21C (stereo partly specified)	8	4 (≈ 5.47 µM)	–	–	16 (≈ 21.9 µM)	8 (≈ 10.9 µM)	0.25 (≈ 0.342 µM)	1 (≈ 1.37 µM)	> 16	> 16	–	–
CC[C@H]1OC(=O)C(C)C(=O)[C@H](C)[C@@H](O[C@@H]2O[C@H](C)C[C@H](N(C)C)[C@H]2O)[C@](C)(OC(=O)N/C=C/c2ccc(-c3ccncc3)cc2)C[C@@H](C)C(=O)[C@H](C)[C@H]2NC(=O)O[C@@]21C (stereo partly specified)	2	0.5 (≈ 0.609 µM)	–	–	8 (≈ 9.74 µM)	0.5 (≈ 0.609 µM)	0.12 (≈ 0.146 µM)	0.03 (≈ 0.0365 µM)	2 (≈ 2.44 µM)	> 16	–	–
CC[C@H]1OC(=O)C(C)C(=O)[C@H](C)[C@@H](O[C@@H]2O[C@H](C)C[C@H](N(C)C)[C@H]2O)[C@](C)(OC(=O)N/C=C/c2ccc(-c3ncccn3)cc2)C[C@@H](C)C(=O)[C@H](C)[C@H]2NC(=O)O[C@@]21C (stereo partly specified)	0.25	0.12 (≈ 0.146 µM)	40	100	4 (≈ 4.87 µM)	0.06 (≈ 0.073 µM)	0.06 (≈ 0.073 µM)	0.03 (≈ 0.0365 µM)	0.12 (≈ 0.146 µM)	> 16	1.8	15
CC[C@H]1OC(=O)C(C)C(=O)[C@H](C)[C@@H](O[C@@H]2O[C@H](C)C[C@H](N(C)C)[C@H]2O)[C@](C)(OC(=O)Nc2ccccc2)C[C@@H](C)C(=O)[C@H](C)[C@H]2NC(=O)O[C@@]21C (stereo partly specified)	1	2 (≈ 2.79 µM)	–	–	8 (≈ 11.1 µM)	8 (≈ 11.1 µM)	0.06 (≈ 0.0836 µM)	0.03 (≈ 0.0418 µM)	> 16	> 16	–	–
CC[C@H]1OC(=O)C(C)C(=O)[C@H](C)[C@@H](O[C@@H]2O[C@H](C)C[C@H](N(C)C)[C@H]2O)[C@](C)(OC(=O)N/C=C/c2ccccc2)C[C@@H](C)C(=O)[C@H](C)[C@H]2NC(=O)O[C@@]21C (stereo partly specified)	2	0.25 (≈ 0.336 µM)	–	–	4 (≈ 5.38 µM)	0.5 (≈ 0.672 µM)	0.06 (≈ 0.0807 µM)	0.06 (≈ 0.0807 µM)	4 (≈ 5.38 µM)	> 16	–	–
CC[C@H]1OC(=O)C(C)C(=O)[C@H](C)[C@@H](O[C@@H]2O[C@H](C)C[C@H](N(C)C)[C@H]2O)[C@](C)(OC(=O)N/C=C/c2ccc(-c3cccnc3)cc2)C[C@@H](C)C(=O)[C@H](C)[C@H]2NC(=O)O[C@@]21C (stereo partly specified)	1	0.25 (≈ 0.305 µM)	–	–	4 (≈ 4.87 µM)	0.12 (≈ 0.146 µM)	0.25 (≈ 0.305 µM)	0.03 (≈ 0.0365 µM)	1 (≈ 1.22 µM)	> 16	–	–
CC[C@H]1OC(=O)C(C)C(=O)[C@H](C)[C@@H](O[C@@H]2O[C@H](C)C[C@H](N(C)C)[C@H]2O)[C@](C)(OC(=O)N/C=C/c2ccc(-n3cccn3)cc2)C[C@@H](C)C(=O)[C@H](C)[C@H]2NC(=O)O[C@@]21C (stereo partly specified)	0.25	0.12 (≈ 0.148 µM)	60	80	4 (≈ 4.94 µM)	0.06 (≈ 0.0741 µM)	0.06 (≈ 0.0741 µM)	0.03 (≈ 0.037 µM)	0.12 (≈ 0.148 µM)	> 16	7.1	> 30
CC[C@H]1OC(=O)[C@H](C)[C@@H](O[C@H]2C[C@@](C)(OC)[C@@H](O)[C@H](C)O2)[C@H](C)[C@@H](O[C@@H]2O[C@H](C)C[C@H](N(C)C)[C@H]2O)[C@](C)(O)C[C@@H](C)C(=O)[C@H](C)[C@@H](O)[C@]1(C)O [ERYTHROMYCIN]	0.06	0.5 (≈ 0.681 µM)	–	–	4 (≈ 5.45 µM)	> 16	4 (≈ 5.45 µM)	0.06 (≈ 0.0818 µM)	> 16	> 16	–	–
CC[C@H]1OC(=O)[C@H](C)C(=O)[C@H](C)[C@@H](O[C@@H]2O[C@H](C)C[C@H](N(C)C)[C@H]2O)[C@](C)(OC)C[C@@H](C)C(=O)[C@H](C)[C@H]2N(CCCCn3cnc(-c4cccnc4)c3)C(=O)O[C@]12C [TELITHROMYCIN]	0.5	0.12 (≈ 0.148 µM)	–	–	2 (≈ 2.46 µM)	0.06 (≈ 0.0739 µM)	0.12 (≈ 0.148 µM)	≤ 0.01	0.25 (≈ 0.308 µM)	> 16	4.4	15
